Results: DBAASP
In brackets after ≈: the same amount, converted by molar mass.

How the values were obtained:
Assay in all cases: ≥ marks a high value that may be exact or a test limit, other limits are often not marked, values filed in µg/mL are converted to µM
[1] = system: Pseudomonas aeruginosa H1001
[2] = system: Acinetobacter baumannii KCTC 2508
[3] = system: Salmonella typhimurium KCTC 1926
[4] = system: Escherichia coli CCARM 1229
[5] = system: Acinetobacter baumannii CCARM 12035
[6] = system: Bacillus subtilis KCTC 3068
[7] = system: Pseudomonas aeruginosa CCARM 2002
[8] = system: Escherichia coli KCTC 1682
[9] = system: Staphylococcus aureus KCTC 1621
[10] = system: Salmonella typhimurium CCARM 8007
[11] = system: Staphylococcus aureus CCARM 3126
[12] = system: Staphylococcus epidermidis KCTC 1917
[13] = system: Pseudomonas aeruginosa KCTC 2004
[14] = system: Enterobacter cloacae BB2013-32
[15] = system: Acinetobacter baumannii Josh 28
[16] = system: Pseudomonas aeruginosa J4228
[17] = system: Pseudomonas aeruginosa ATCC 27853
[18] = system: Escherichia coli BB2013-30
[19] = system: Pseudomonas aeruginosa BB2013-100
[20] = system: Enterobacter asburiae St. L P23
[21] = system: Enterobacter cloacae St. L P23
Escherichia coli JW55034 = system: Escherichia coli JW55034
Escherichia coli BW25113 = system: Escherichia coli BW25113
[22] = system: Klebsiella aerogenes St. L P63
[23] = system: Klebsiella pneumoniae BB2009-209
[24] = system: Enterobacter cloacae BB2012-181
[25] = system: Escherichia coli ARLG-1012
[26] = system: Klebsiella pneumoniae Oschner KP-1
[27] = system: Klebsiella pneumoniae J3702
[28] = system: Acinetobacter baumannii Josh 230

| SMILES | MIC [1] | MIC [2] | MIC [3] | MIC [4] | MIC [5] | MIC [6] | MIC [7] | MIC [8] | MIC [9] | MIC [10] | MIC [11] | MIC [12] | MIC [13] | MIC [14] | MIC [15] | MIC [16] | MIC [17] | MIC [18] | MIC [19] | MIC [20] | further results |
| --- | --- | --- | --- | --- | --- | --- | --- | --- | --- | --- | --- | --- | --- | --- | --- | --- | --- | --- | --- | --- | --- |
| CC[C@H](C)[C@H](NC(=O)[C@H](CCCCN)NC(=O)[C@H](Cc1c[nH]c2ccccc12)NC(=O)[C@@H](N)CCCN=C(N)N)C(=O)N[C@@H](Cc1ccccc1)C(=O)N[C@@H](CCCCN)C(=O)N[C@@H](CCCCN)C(=O)N[C@@H](C)C(=O)N[C@@H](C)C(=O)N[C@@H](CCCCN)C(=O)N[C@@H](CCCCN)C(=O)NCC(N)=O [RWKIFKKAAKKG] |  | ≥ 32 µM | 16 µM (≈ 23.4 µg/mL) | ≥ 32 µM | 16 µM (≈ 23.4 µg/mL) | 16 µM (≈ 23.4 µg/mL) | 16 µM (≈ 23.4 µg/mL) | 8 µM (≈ 11.7 µg/mL) | 16 µM (≈ 23.4 µg/mL) | 16 µM (≈ 23.4 µg/mL) | 16 µM (≈ 23.4 µg/mL) | ≥ 32 µM | 8 µM (≈ 11.7 µg/mL) |  |  |  |  |  |  |  |  |
| CC[C@H](C)[C@H](NC(=O)[C@H](Cc1cnc[nH]1)NC(=O)[C@H](CCCCN)NC(=O)[C@H](CCCCN)NC(=O)[C@H](CC(C)C)NC(=O)[C@H](CCCCN)NC(=O)[C@H](CCCCN)NC(=O)[C@H](CC(C)C)NC(=O)[C@H](Cc1ccccc1)NC(=O)[C@H](Cc1ccccc1)NC(=O)[C@H](CCCCN)NC(=O)[C@@H](NC(=O)CN)[C@@H](C)CC)C(N)=O [GIKFFLKKLKKHI] |  |  |  |  |  |  |  |  |  |  |  |  |  | 10 µM (≈ 16 µg/mL) | 1.25 µM (≈ 2 µg/mL) | 10 µM (≈ 16 µg/mL) | 5 µM (≈ 8 µg/mL) | 10 µM (≈ 16 µg/mL) | 20 µM (≈ 32 µg/mL) | 20 µM (≈ 32 µg/mL) | MIC [21]: 20 µM (≈ 32 µg/mL); MIC (Escherichia coli JW55034): 5 µM (≈ 8 µg/mL); MIC (Escherichia coli BW25113): 5 µM (≈ 8 µg/mL); MIC [22]: 10 µM (≈ 16 µg/mL); MIC [23]: 20 µM (≈ 32 µg/mL); MIC [24]: 20 µM (≈ 32 µg/mL); MIC [25]: 5 µM (≈ 8 µg/mL); MIC [26]: 20 µM (≈ 32 µg/mL); MIC [27]: 20 µM (≈ 32 µg/mL); MIC [28]: 2.5 µM (≈ 4 µg/mL) |
| CC[C@H](C)[C@H](NC(=O)[C@H](CCCCN)NC(=O)[C@H](Cc1c[nH]c2ccccc12)NC(=O)[C@@H](N)CCCN=C(N)N)C(=O)N[C@@H](Cc1ccccc1)C(=O)N[C@@H](CCCCN)C(=O)N[C@@H](CCCCN)C(=O)N[C@@H](C)C(=O)N[C@@H](C)C(=O)N[C@@H](CCCCN)C(=O)N[C@@H](CCCCN)C(=O)N[C@@H](C)C(N)=O [RWKIFKKAAKKA] |  | ≥ 32 µM | ≥ 32 µM | ≥ 32 µM | 16 µM (≈ 23.6 µg/mL) | 16 µM (≈ 23.6 µg/mL) | ≥ 32 µM | 8 µM (≈ 11.8 µg/mL) | 8 µM (≈ 11.8 µg/mL) | 16 µM (≈ 23.6 µg/mL) | ≥ 32 µM | ≥ 32 µM | 8 µM (≈ 11.8 µg/mL) |  |  |  |  |  |  |  |  |
| CC[C@H](C)[C@H](NC(=O)[C@H](C)N)C(=O)N[C@@H](CCCCN)C(=O)N[C@H](C(=O)N[C@@H](CCCN=C(N)N)C(=O)N[C@@H](CCCCN)C(=O)N[C@@H](CC(C)C)C(=O)N[C@@H](Cc1ccccc1)C(=O)N[C@@H](CCCCN)C(=O)N[C@@H](CCCCN)C(=O)N[C@@H](CC(C)C)C(=O)N[C@@H](CC(C)C)C(=O)N[C@@H](CCCN=C(N)N)C(N)=O)[C@@H](C)CC [AIKIRKLFKKLLR] |  |  |  |  |  |  |  |  |  |  |  |  |  | 19.7 µM (≈ 32 µg/mL) | 2.46 µM (≈ 4 µg/mL) | 4.92 µM (≈ 8 µg/mL) | 2.46 µM (≈ 4 µg/mL) | 9.83 µM (≈ 16 µg/mL) | 19.7 µM (≈ 32 µg/mL) | 19.7 µM (≈ 32 µg/mL) | MIC [21]: 19.7 µM (≈ 32 µg/mL); MIC (Escherichia coli JW55034): 4.92 µM (≈ 8 µg/mL); MIC (Escherichia coli BW25113): 4.92 µM (≈ 8 µg/mL); MIC [22]: 19.7 µM (≈ 32 µg/mL); MIC [23]: 19.7 µM (≈ 32 µg/mL); MIC [24]: 19.7 µM (≈ 32 µg/mL); MIC [25]: 4.92 µM (≈ 8 µg/mL); MIC [26]: 19.7 µM (≈ 32 µg/mL); MIC [27]: 19.7 µM (≈ 32 µg/mL); MIC [28]: 9.83 µM (≈ 16 µg/mL) |

Continued, in another order:

| MIC [1] | MIC [2] | MIC [3] | MIC [4] | MIC [5] | MIC [6] | MIC [7] | MIC [8] | MIC [9] | MIC [10] | MIC [11] | MIC [12] | MIC [13] | MIC [14] | MIC [15] | MIC [16] | MIC [17] | MIC [18] | MIC [19] | MIC [20] | SMILES | further results |
| --- | --- | --- | --- | --- | --- | --- | --- | --- | --- | --- | --- | --- | --- | --- | --- | --- | --- | --- | --- | --- | --- |
| 0.0328 µM (≈ 0.08 µg/mL) |  |  |  |  |  |  |  |  |  |  |  |  |  |  |  |  |  |  |  | CC(C)C[C@H](NC(=O)[C@H](Cc1ccc(O)cc1)NC(=O)[C@@H]1CCCN1C(=O)[C@@H]1CCCN1C(=O)[C@H](CCCCN)NC(=O)[C@H](CC(=O)O)NC(=O)[C@@H](N)C(C)C)C(=O)N1CCC[C@H]1C(=O)N[C@@H](CCCN=C(N)N)C(=O)N1CCC[C@H]1C(=O)N[C@@H](CCCN=C(N)N)C(=O)N1CCC[C@H]1C(=O)N1CCC[C@H]1C(=O)N[C@@H](CCCN=C(N)N)C(=O)N[C@@H](CCCN=C(N)N)C(=O)N[C@@H](CS)C(=O)N[C@@H](Cc1ccc(O)cc1)C(=O)N[C@@H](CC(N)=O)C(=O)N[C@@H](CCCN=C(N)N)C(=O)NCC(=O)O [VDKPPYLPRPRPPRRCYNRG] |  |
| ≥ 208 µM |  |  |  |  |  |  |  |  |  |  |  |  |  |  |  |  |  |  |  | NC(=O)[C@H](CCCN=C(N)N)NC(=O)[C@H](CCCN=C(N)N)NC(=O)[C@H](Cc1c[nH]c2ccccc12)NC(=O)[C@H](CCCN=C(N)N)NC(=O)[C@H](Cc1c[nH]c2ccccc12)NC(=O)[C@H](Cc1c[nH]c2ccccc12)NC(=O)[C@@H](N)CCCN=C(N)N [RWWRWRR] |  |
